One assay relates to mutp53^R175H. Nature of the assay: ELISA of mutp53 conformation (PAb1620/PAb240), H1299-p53^R175H cell extract. The format is biochemical, human. The following applies: for Conform H1299: score 0-6 compared to positive control, mutp53 conformation; for reactivity of p53^R175H with PAb1620 and PAb240: H1299-p53^R175H cell extract, Figure 2A. The source says: A total of close to 350 peptides, deduced from the phage sequences, were synthesized and subjected to several alternative complementary methods of semi high-throughput functional screening; we refer to these peptides as pCAPs (p53 conformation activating peptides). First, we used cell-free ELISA assays to evaluate the effect of individual peptides on mutp53 conformation and DNA binding in vitro. For conformation analysis (Figure 2A), microtiter plates were coated with PAb240, PAb1620 or PAb421 as control, then the effect of each peptide on reactivity of mutp53 with these antibodies was examined; WTp53 served as a positive control for PAb1620 reactivity.
Cell extracts were added to ELISA plates coated with the indicated antibodies to allow mutp53 to react with the peptides and antibodies. αp53-HRP Ab was used for assessment of p53 levels. Numbers represent ratio of absorbance between the PAb1620 and PAb240 samples. All reads were normalized to the control […] reading of each extract. MCF7 (WTp53) and H1299-mutp53^A135V (tsp53) cells were used as positive controls for the WTp53 conformation (1620/240 ratio equals or exceeds 5:1). […] 96 well plates were coated with anti-p53 antibody, cell extracts containing p53 were reacted with oligonucleotides that contain a p53RE consensus binding site, labeled with biotin, in the presence or absence (NT) of test peptides. Streptavidin-HRP is used to quantify the amount of oligos in the well. TMB assay was performed to determine bound mutp53 levels (450nm). MCF7 and the H1299-mutp53^A135V(TS) cells serve as positive controls for WTp53. C.and D. - Bar graphs illustrating the effect of various selected peptides on mut-p53 dependent expression on cell viability. […] D, ES2 cells expressing endogenous mutp53 (blue bars) and ES2 cells knocked out for p53 by CRISPR construct (light blue bars). Cell lines were treated with selected peptides, Cis-platinum was used as positive control for cell death. 48 hours after treatment, cells were washed with PBS, and the remaining attached cells were stained with Crystal violet and washed 4 times with PBS. Stained cells were dissolved in 10% acetic acid and plates were taken for optical density measurement at […]. TEXT PRINTED IN THE PICTURE: (A) pCAP1: 0.87 | (A) pCAP2: 0.53 | (A) pCAP3: 0.59 | (A) pCAP4: 0.59 | (A) pCAP5: 0.60 | (A) pCAP6: 0.75 | (A) pCAP23: 1.06 | (A) pCAP24: 1.44 | (A) pCAP36: 1.25 | (A) pCAP47: 1.54 | (A) pCAP54: 1.54 | (A) pCAP60: 2.73 | (A) pCAP68: 2.22 | (A) pCAP83: 1.56 | (A) pCAP97: 2.45 DOUBTS OF THE COPYIST ABOUT THIS PICTURE: Panel A: the numbers over the bars are printed very small, rotated and blurred, so 3, 5, 6, 8 and 9 cannot be told apart with certainty. All values are best readings: pCAP1 0.87, pCAP2 0.53, pCAP3 0.59, pCAP4 0.59, pCAP5 0.60, pCAP6 0.75, pCAP23 1.06, pCAP24 1.44, pCAP36 1.25, pCAP47 1.54, pCAP54 1.54, pCAP60 2.73, pCAP68 2.22, pCAP83 1.56, pCAP97 2.45 / Panel A: the picture prints no measure with the numbers over the bars, so they are given as bare numbers / Panel A: numbers are also printed over the controls, which are not substances and are left out of lines. Best readings: NT 0.60, 60° 30'' 0.48, 60° 1' 0.37, 60° 3' 0.13, 60° 10' 0.05, MCF7 3.32, H1299TS 3.25
Extracts were prepared at a concentration of 750ng/μl and then reacted for 2 hours with different peptides. Plates coated with the different antibodies were then washed and blocked, and extracts pre-incubated either with or without peptides were added for two additional hours. After removal of extracts, plates were washed and incubated with HRP-conjugated anti-p53 antibody. Finally, HRP activity was quantified by optical density at 450nm. MCF7 cells (expressing WTp53) and H1299-tsp53^A135V cells, stably expressing a temperature sensitive p53 mutant that has mutant conformation at 37°C but WT conformation at 32°C [31], were used as positive controls for the WTp53 conformation (1620/240 ratio 5:1). […]

The subject of assay [1] is p53 target genes in MDA231. Nature of the assay: Induction of p53 target genes by qRT-PCR, MDA231. It counts as cell-based, human. Also on record: key: score 0- no effect-white; score 6- as or more effective than positive control- black. The following applies: score 0-6 compared to positive control. How it is done: RNA was obtained using Macherey-Nagel NucleoSpin RNA II Kit on cells pellet according to the manufacturer's protocol. Aliquots of 0.4-1 μg were reverse transcribed using Bio-RT 2000 (Bio-Lab) and random hexamer primers. QRT-PCR was performed on an ABI 7300 instrument (Applied Biosystems) using SYBR Green FastMix ROX (Quanta). RT-PCR primers (All primers sequences are presented 5′ to 3′): […]
(In general: Quantitative PCR measures a nucleic acid by following its amplification.)

The next assay concerns H23. Nature of the assay: Crystal violet viability assay, H23. It counts as cell-based, human. The following applies: score 0-6 compared to positive control, 48 h. Also on record: key: score 0- no effect-white; score 6- as or more effective than positive control- black. The source says:
(§1) We also performed a similar analysis on ES2 ovarian cancer cells, which express endogenous mp53^S241F, compared to ES2 cells in which p53 was stably knocked out using CRISPR/Cas9 (ES2 p53KO Figure S1F), to control for specificity for mutp53 (Figure 2D). In ES2 cells, too, some of the peptides caused a significant reduction in cell numbers, more prominent in the mutp53 expressing cells than in their p53KO counterparts. […] Overall, we performed this analysis on several different mutp53-expressing human cancer cell lines, and the results are summarized in Table S3. Based on this comprehensive picture, we reduced the number of most promising candidate lead peptides to 30. These peptides were then synthesized with an 8 arginine C-terminal tail for enhanced delivery across cell membranes (pCAPs 130-160); for clarity, peptides are referred to by their original number, with an R for poly arginine (see Table S3).
(§2) Cells were cultured in 96 wells plates with 2500-4000 cells/well. Serial dilutions of different peptides were added and the plates incubated for additional 48 h at 37°C. Then medium was removed and cell viability was determined by staining the cells with crystal violet (0.05%) in methanol/PBS (1:5, v/v), for 10 min, followed by 3 washes with PBS. 10% acetic acid was added to each well for 10 min. OD was determined at 595 nm.

For another assay, the system named is MDA. Kind of assay: Crystal violet viability assay, MDA. It counts as cell-based, human. The following applies: score 0-6 compared to positive control, 48 h.
Text: as §1, §2

With HANLHHT [pCAP-87], the “Conform H1299” value in the assay on mutp53^R175H turned out to be 3. In assay [1], the “PCR MDA231” value is 4.
As for HHPWTHHQRWS [pCAP-20], the “Conform H1299” value in the assay on mutp53^R175H is listed as 2. Further, the “Viability H23” value in the assay with H23 was 4.
With HSSHHHPVHSWN [pCAP-83], the “Conform H1299” value with mutp53^R175H worked out at 4.
Turning to IRGRIIR [pCAP-54], in the assay on mutp53^R175H, the “reactivity of p53^R175H with PAb1620 and PAb240” value (shortened to “reactivity of p53^R175H”) is “increased the reactivity of p53^R175H with PAb1620 and decreased its reactivity with PAb240”; the “Conform H1299” value stood at 3. Further, the “Viability MDA” value in the assay on MDA turned out to be 4.
For the substance “IRGRIIRRRRRRRRR [pCAP-54R, pCAP-54 with poly arginine tail]”, the “Conform H1299” value in the assay on mutp53^R175H is given as 1. Further, in the assay with MDA, the “Viability MDA” value amounted to 4.
As for IRILMFLIGCGR [pCAP-23], the “Conform H1299” value in the assay on mutp53^R175H was found to be 2.
On the same count and under the same terms, as for “IRILMFLIGCGRRRRRRRRR [pCAP-23R, pCAP-23 with poly arginine tail]”, the figure is 2.
Same read-out and setting: the value for LHSKTLVL [pCAP-17] was 2; that for LRCLLLLIGRVG [pCAP-24] was 3.
“LRCLLLLIGRVGRRRRRRRR [pCAP-24R, pCAP-24 with poly arginine tail]”: the “Conform H1299” value with mutp53^R175H amounted to 3. In addition, the “Viability MDA” value in the assay with MDA worked out at 4.
On to SFILFIRRGRLG [pCAP-60], for which the “reactivity of p53^R175H” value in the assay with mutp53^R175H is “increased the reactivity of p53^R175H with PAb1620 and decreased its reactivity with PAb240”. For the same substance, in assay [1], the “PCR MDA231” value is given as 2.
“SFILFIRRGRLGRRRRRRRRR [pCAP-60R, pCAP-60 with poly arginine tail]”: the “Viability H23” value with H23 is 4.
Turning to WNHHHSTPHPAH [pCAP-97], in the assay on mutp53^R175H, the “reactivity of p53^R175H” value was “increased the reactivity of p53^R175H with PAb1620 and decreased its reactivity with PAb240”; the “Conform H1299” value came out at 1. Also, the “Viability MDA” value in the assay on MDA came out at 4. Moreover, the “PCR MDA231” value in assay [1] amounted to 3.
For the substance “WNHHHSTPHPAHRRRRRR [pCAP-97R, pCAP-97 with poly arginine tail]”, the “Conform H1299” value in the assay with mutp53^R175H is given as 1. Further, the “Viability MDA” value in the assay on MDA was 4. The “PCR MDA231” value in assay [1] turned out to be 3.
For YPTQGHLR [pCAP-36], the “Conform H1299” value with mutp53^R175H amounted to 5. For the same substance, the “Viability MDA” value in the assay on MDA came to 4.
For the substance YRRLLIGMMWRRRRRRRRR [pCAP-68], in the assay with mutp53^R175H, the “reactivity of p53^R175H” value is “increased the reactivity of p53^R175H with PAb1620 and decreased its reactivity with PAb240”; the “Conform H1299” value turned out to be 4. Besides, the “Viability MDA” value in the assay with MDA came out at 4. In addition, the “PCR MDA231” value in assay [1] is reported as 2.
With “myr-PRVLPSPHTIHPSQYP [pCAP-229, myristoylated peptide, similarity to HIPK2]”, the “Viability H23” value in the assay on H23 was 3. In addition, the “PCR MDA231” value in assay [1] was found to be 3.
As for myr-RRIRDPRILLLHFD [pCAP-325], the “Viability MDA” value with MDA was 4. The “Viability H23” value with H23 worked out at 4. Further, the “PCR MDA231” value in assay [1] turned out to be 6.
In the case of myr-RRKHNKHRPEPDSDER [pCAP-221], in the assay with MDA, the “Viability MDA” value came out at 5. Also, the “Viability H23” value in the assay on H23 turned out to be 6. Besides, the “PCR MDA231” value in assay [1] was 4.
As to “myr-RRKILFIRLMHNKH [pCAP-227, myristoylated peptide, similarity to GAS2]”, the “Conform H1299” value with mutp53^R175H turned out to be 2. Moreover, in the assay on MDA, the “Viability MDA” value amounted to 3. Moreover, in the assay on H23, the “Viability H23” value came out at 3. Besides, the “PCR MDA231” value in assay [1] was found to be 3.
For myr-RRLIVRILKLPNPPER [pCAP-242], in the assay with mutp53^R175H, the “Conform H1299” value was found to be 2. Also, the “Viability MDA” value with MDA came to 3. Further, the “Viability H23” value in the assay on H23 turned out to be 6. The “PCR MDA231” value in assay [1] turned out to be 2.
